From article PMC6268492, “Synthesis and Antiangiogenic Activity of Novel Gambogic Acid Derivatives” (Molecules, 2012)

Experiments:
A549 = assay: MTT assay, cell proliferation; format: cell-based; conditions: Homo sapiens, 24 h, read-out: IC50, inhibition of cell proliferation
Description: (§1) HepG2, HCT116, HeLa and LO2 cell lines were cultured in DMEM containing 10% fetal bovine serum (FBS), 100 IU/mL penicillin and 100 µg/mL streptomycin; A549 and K562 cell lines were cultured in RPMI 1640 medium containing 10% fetal bovine serum (FBS), 100 IU/mL penicillin and 100 µg/mL streptomycin; Human umbilical vein endothelial cells (HUVECs) were cultured on gelatin-coated culture flasks in M-199 medium with 20% fetal bovine serum (FBS), 2 ng/mL VEGF, 10 ng/mL basic FGF, 100 IU/mL penicillin, and 100 μg/mL streptomycin; all of them were obtained from the American Type Culture Collection (ATCC) and all cell lines were incubated in an atmosphere of 5% CO2 at 37 °C.
(§2) Cells were treated with various concentrations of compound in 96-well culture plates for 24 h in final volumes of 200 μL (5 × 10^3 cells/well). Then 20 μL of MTT solution (5 mg/mL) was added to each well, and cells were incubated for an additional 3 h. Then the medium was carefully removed, and precipitates were dissolved in 150 μL of DMSO, shaken mechanically for 30 min, and then absorbance values at a wavelength of 570 nm were taken on a spectrophotometer (Molecular Devices, Sunnyvale, CA, USA). Values were calculated using percentage of growth versus untreated control. The IC50 was defined as the concentration that caused 50% inhibition of cell proliferation, and was calculated by SAS statistical software.

HCT116 = assay: MTT assay, cell proliferation; format: cell-based; conditions: Homo sapiens, HCT-116, 24 h, read-out: IC50, inhibition of cell proliferation
Description: as §1, §2

HeLa = assay: MTT assay, cell proliferation; format: cell-based; conditions: Homo sapiens, 24 h, read-out: IC50, inhibition of cell proliferation
Description: as §1, §2

HepG2 = assay: MTT assay, cell proliferation; format: cell-based; conditions: Homo sapiens, 24 h, read-out: IC50, inhibition of cell proliferation
Description: as §1, §2

K562 = assay: MTT assay, cell proliferation; format: cell-based; conditions: Homo sapiens, 24 h, read-out: IC50, inhibition of cell proliferation
Description: as §1, §2

HUVEC = assay: MTT assay, cell proliferation; format: cell-based, Human; conditions: Homo sapiens, 24 h, read-out: IC50, inhibition of cell proliferation
Description: Inhibiting the proliferation of ECs is another important strategy for antiangiogenesis. […] As the exposure time of these derivatives was 24 h in the migration assay and 6 h in the tube formation assay, the effect of the incubation for 24 h in the presence of these compounds on HUVECs proliferation was then tested. Cell viability was assessed by the MTT method. We can see from Table 4 that these compounds had different antiproliferative activities.
as §1, §2

LO2 = assay: MTT assay, cytotoxicity; format: cell-based; conditions: Homo sapiens, L02, 24 h, read-out: IC50, inhibition of cell proliferation
Description: as §1, §2

SMILES	IC50 (A549) [µM]	IC50 (HCT116) [µM]	IC50 (HeLa) [µM]	IC50 (HepG2) [µM]	IC50 (K562) [µM]	IC50 (HUVEC) [µM]	IC50 (LO2) [µM]
CC(C)=CCCC1(C)C=Cc2c(O)c3c(c(CC=C(C)C)c2O1)OC12C(=CC4CC1C(C)(C)OC2(C/C=C(/C)C(=O)Oc1ccc(Br)cc1)C4=O)C3=O (stereo not drawn) [Compound 19, 4-Bromophenyl gambogate]	> 80	70.2 ± 3.06	> 80	> 80	> 80	68 ± 4	> 80
CCc1ccc(OC(=O)/C(C)=C\CC23OC(C)(C)C4CC(C=C5C(=O)c6c(O)c7c(c(CC=C(C)C)c6OC542)OC(C)(CCC=C(C)C)C=C7)C3=O)cc1 (stereo not drawn) [Compound 21, 4-Ethylphenyl gambogate]	> 80	> 80	> 80	> 80	> 80	70.5 ± 4.86	> 80
CC(C)=CCCC1(C)C=Cc2c(O)c3c(c(CC=C(C)C)c2O1)OC12C(=CC4CC1C(C)(C)OC2(C/C=C(/C)C(=O)Oc1ccc(Br)c(F)c1F)C4=O)C3=O (stereo not drawn) [Compound 24, 4-Bromo-2,3-difluorophenyl gambogate]	> 80	> 80	> 80	> 80	> 80	> 80	> 80
CC(C)=CCCC1(C)C=Cc2c(O)c3c(c(CC=C(C)C)c2O1)OC12C(=CC4CC1C(C)(C)OC2(C/C=C(/C)C(=O)Oc1ccc(C(C)(C)CC(C)(C)C)cc1)C4=O)C3=O (stereo not drawn) [Compound 25, 4-(2,4,4-Trimethylpentan-2-yl)phenyl gambogate]	> 80	> 80	> 80	> 80	> 80	> 80	> 80
CC(=O)Nc1ccccc1OC(=O)/C(C)=C\CC12OC(C)(C)C3CC(C=C4C(=O)c5c(O)c6c(c(CC=C(C)C)c5OC431)OC(C)(CCC=C(C)C)C=C6)C2=O (stereo not drawn) [Compound 27, 2-Acetamidophenyl gambogate]	1.22 ± 0.25	1.05 ± 0.07	3.51 ± 0.15	0.69 ± 0.08	0.52 ± 0.02	0.5 ± 0.03	1.52 ± 0.12
CC(C)=CCCC1(C)C=Cc2c(O)c3c(c(CC=C(C)C)c2O1)OC12C(=CC4CC1C(C)(C)OC2(C/C=C(/C)C(=O)Sc1nccs1)C4=O)C3=O (stereo not drawn) [Compound 29, S-thiazol-2-yl gambogthioate]	0.63 ± 0.01	1.63 ± 0.15	1.45 ± 0.07	0.85 ± 0.15	0.79 ± 0.06	6.64 ± 0.11	4.28 ± 0.33
CC(=O)Nc1ccc(SC(=O)/C(C)=C\CC23OC(C)(C)C4CC(C=C5C(=O)c6c(O)c7c(c(CC=C(C)C)c6OC542)OC(C)(CCC=C(C)C)C=C7)C3=O)cc1 (stereo not drawn) [Compound 30, 4-Acetamidophenyl gambogthioate]	1.24 ± 0.09	1.33 ± 0.07	3.43 ± 0.28	1.72 ± 0.03	0.44 ± 0.02	1.03 ± 0.07	2.84 ± 0.34
CC(C)=CCCC1(C)C=Cc2c(O)c3c(c(CC=C(C)C)c2O1)OC12C(=CC4CC1C(C)(C)OC2(C/C=C(/C)C(=O)n1cccn1)C4=O)C3=O (stereo not drawn) [Compound 33, 1-Gambogyl pyrazole]	1.3 ± 0.08	1.2 ± 0.09	4.23 ± 0.39	1 ± 0.06	0.53 ± 0.05	0.57 ± 0.03	1.75 ± 0.09
CC(C)=CCCC1(C)C=Cc2c(O)c3c(c(CC=C(C)C)c2O1)OC12C(=CC4CC1C(C)(C)OC2(C/C=C(/C)C(=O)Nc1nc2ccccc2s1)C4=O)C3=O (stereo not drawn) [Compound 34, N-(benzo[d]thiazol-2-yl) gambogamide]	21.4 ± 3.71	7.74 ± 1.43	> 80	8.65 ± 0.46	> 20	5.63 ± 0.2	7.3 ± 1.2
